In patent publication US20070286890A1, “Eyelash applicator and method” (priority 2006, published 2007):

Tested on: eyelashes of healthy female volunteers
Assay: Open-label study of Lumigan applied with an applicator to the upper eyelid margin, four months
Type: in vivo, human
[1] = one drop on applicator tip, applied to lid margin of both upper eyelids before bedtime, through week 12, 25 volunteers, no controls, preliminary findings

Structure (SMILES): CCNC(=O)CCC/C=C\C[C@@H]1[C@@H](/C=C/[C@@H](O)CCc2ccccc2)[C@H](O)C[C@@H]1O [Lumigan®, cyclopentane N-ethyl heptanamide-5-cis-2-(3α-hydroxy-5-phenyl-1trans-pentenyl)-3,5-dihydroxy, [1α,2β,3α,5α]]
- Darker and thicker lashes, additional lashes [1]: many grew darker and thicker lashes as well as additional lashes
- Eyelash length (longer lashes) [1]: Every participant grew longer lashes
- Growth of lower lid lashes and eyebrow hairs (patients applied Lumigan "on their own" to these areas): grew lower lid lashes and eyebrow hairs
- Side effects (vision, IOP, ocular irritation, periocular pigmentary changes) (topical application to upper eyelid margin, through week 12, visits up to week 16, preliminary findings): Minimal Side Effects
